Data from US20260001889A1, “COMPOSITIONS USEFUL FOR MODULATING SPLICING” (Skyhawk Therapeutics, Inc., priority 2022, published 2026).

What was measured:
[1] = test system: ATXN3 transcripts containing exon 4; test: ATXN3 Quantitative Splicing Assay (qPCR, E4E5 primers/probe); type: cell-based; details: Homo sapiens, SK-N-MC cells, compounds for 24 h
Description: Example 34: ATXN3 Quantitative Splicing Assay
Human neuroblastoma SK-N-MC cells were plated in 384-well plates at 20,000 cells/well. Twenty-four hours after plating, cells were treated with compounds for 24 h at appropriate concentrations ranging from 30 μM to 0.6 nM (0.300 DMSO). Treated cells were lysed in 15 μL of lysis buffer, and cDNA was synthesized using the Fast Advanced Cells-to-Ct kit. Two […] of each cDNA was used in qPCR reactions to confirm the exon 4 skipped transcripts of ATXN3. A second set of primers/probe E4E5 was used to detect the transcripts containing exon 4. The third set of primers/probe E8E9 was used to detect total gene level of ATXN3. The qPCR reactions were prepared in 384-well plates in 10 μL volume, using TaqMan™ Fast Advanced Master Mix with primers and probes shown in the table below. Reactions were run in a Quant Studio 6 qPCR instrument with default settings.
The primers and probes are listed below in Table 4.

total ATXN3 protein = test: ATXN3 Total Protein Assay (Mesoscale Discovery, SK-N-MC cells); type: cell-based, Human; details: incubation for 48 hours, MSD assay
Description: Example 35: ATXN3 Total Protein Assay
Human neuroblastoma SK-N-MC cells were seeded at 10,000 cells/well in 384 well plates one day prior to compound treatment. The concentrations of compounds were tested at appropriate doses ranging from 30 μM to 0.6 nM. After incubation for 48 hours, the cells were lysed with 25 μL of lysis buffer containing protease inhibitors, and total ATXN3 protein levels were assessed by Mesoscale Discovery (MSD) assay developed with one pair of anti-ATXN3 antibodies. The capture and detect antibodies were raised in mouse and rabbit respectively. Anti-rabbit MSD-ST antibody was used for secondary antibody.
ATXN3 recombinant protein was used for standards. The readouts were captured with 35 μL of MSD read buffer and multi-array 384-well high binding plates.

ATXN3-HiBiT protein = test: ATXN3 Total Protein Assay (Kelly-ATXN3-HiBiT luminescence); type: cell-based; details: Kelly-ATXN3-HiBiT cells, 48 h after addition of compound
How it was run: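 Kelly cells with homozygous C-terminal HiBiT knock-in on endogenous ATXN3, 2000 per well, dosed 24 h after seeding. HiBiT lytic luminescence read 48 h after compound; sister plate read with CellTiter-Glo for viability; fold change vs DMSO.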

In the case of `Cc1c(C[C@H](C)N)oc2c(NCc3ccncc3)cc(Cl)nc12` (single isomer, unassigned) [Compound 3], the IC50 [1] is reported as 501 to 5000 nM and the IC50 (total ATXN3 protein) is reported as 501 to 5000 nM.
`Cc1c(C[C@@H](C)N)oc2c(NCc3ccncc3)cc(Cl)nc12` (single isomer, unassigned) [Compound 4] showed an IC50 [1] of 5000 to 10000 nM and an IC50 (total ATXN3 protein) of 501 to 5000 nM.
With `N[C@H](Cc1oc2c(NCc3cccs3)cc(Cl)nc2c1Br)[C@H]1CCOC1` (single isomer, unassigned) [Compound 99] the IC50 [1] was 101 to 500 nM, the IC50 (total ATXN3 protein) was 101 to 500 nM and the EC50 (ATXN3-HiBiT protein) was 501 to 5000 nM.
`N[C@H](Cc1oc2c(NCc3cccs3)cc(Cl)nc2c1Br)[C@@H]1CCOC1` (single isomer, unassigned) [Compound 100] showed an IC50 [1] of 501 to 5000 nM, an IC50 (total ATXN3 protein) of 5000 to 10000 nM and an EC50 (ATXN3-HiBiT protein) of 10000 to 40000 nM.
Compound `N[C@@H](Cc1oc2c(NCc3cccs3)cc(Cl)nc2c1Br)[C@@H]1CCOC1` (single isomer, unassigned) [Compound 214] has an IC50 [1] of 501 to 5000 nM, an IC50 (total ATXN3 protein) of 501 to 5000 nM and an EC50 (ATXN3-HiBiT protein) of 501 to 5000 nM.
Work on `N[C@@H](Cc1oc2c(NCc3cccs3)cc(Cl)nc2c1Br)[C@H]1CCOC1` (single isomer, unassigned) [Compound 215] yielded an IC50 [1] of 10000 to 40000 nM, an IC50 (total ATXN3 protein) of 10000 to 40000 nM and an EC50 (ATXN3-HiBiT protein) of 10000 to 40000 nM.
In the case of `CC(N)Cc1cc2nc(Cl)cc(NCc3ccncc3)c2o1` (stereo not shown) [Compound 1, 2-(2-aminopropyl)-5-chloro-7-{[(4-pyridyl)methyl]amino}-1-oxa-4-azaindene], the IC50 [1] is reported as 10000 to 40000 nM and the IC50 (total ATXN3 protein) is reported as 10000 to 40000 nM.
`CC(N)Cc1cc2nc(Cl)cc(NCc3ccccc3)c2o1` (stereo not shown) [Compound 2, 2-(2-aminopropyl)-7-benzylamino-5-chloro-1-oxa-4-azaindene] showed an IC50 [1] of 5000 to 10000 nM and an IC50 (total ATXN3 protein) of 5000 to 10000 nM.
`Cc1coc2c(NCc3ccncc3)cc(Cl)nc12` [Compound 5, [(4-pyridyl)methyl](5-chloro-3-methyl-1-oxa-4-aza-7-indenyl)amine] showed an IC50 [1] of 10000 to 40000 nM and an IC50 (total ATXN3 protein) of 10000 to 40000 nM.
`Clc1cc(NCc2ccncc2)c2occc2n1` [Compound 6, 5-chloro-N-(pyridin-4-ylmethyl)furo[3,2-b]pyridin-7-amine] was tested, and the IC50 [1] was 10000 to 40000 nM and the IC50 (total ATXN3 protein) was 10000 to 40000 nM.
`Cc1c(CC(C)N)oc2c(NCc3ccncc3)cc(Cl)nc12` (stereo not shown) [Compound 7, 2-(2-aminopropyl)-5-chloro-3-methyl-7-{[(4-pyridyl)methyl]amino}-1-oxa-4-azaindene] was tested, and the IC50 [1] was 501 to 5000 nM and the IC50 (total ATXN3 protein) was 501 to 5000 nM.
`Cc1c(C[C@H](C)N)oc2c(NCc3ccccc3)cc(Cl)nc12` [Compound 8, 2-[(S)-2-aminopropyl]-7-benzylamino-5-chloro-3-methyl-1-oxa-4-azaindene] showed an IC50 [1] of 501 to 5000 nM and an IC50 (total ATXN3 protein) of 501 to 5000 nM.
With `Cc1c(C[C@H](C)N)oc2c(NCc3nccs3)cc(Cl)nc12` [Compound 9, 2-[(S)-2-aminopropyl]-5-chloro-3-methyl-7-{[(1,3-thiazol-2-yl)methyl]amino}-1-oxa-4-azaindene] the IC50 [1] was 501 to 5000 nM and the IC50 (total ATXN3 protein) was 501 to 5000 nM.
`Cc1c(C[C@H](C)N)oc2c(NCc3ccco3)cc(Cl)nc12` [Compound 10, 2-[(S)-2-aminopropyl]-5-chloro-7-(furfurylamino)-3-methyl-1-oxa-4-azaindene] gave an IC50 [1] of 501 to 5000 nM and an IC50 (total ATXN3 protein) of 501 to 5000 nM.
For `Cc1c(C[C@H](C)N)oc2c(NCc3cccs3)cc(Cl)nc12` [Compound 11, 2-[(S)-2-aminopropyl]-5-chloro-3-methyl-7-thenylamino-1-oxa-4-azaindene], the IC50 [1] was 101 to 500 nM, the IC50 (total ATXN3 protein) was 101 to 500 nM and the EC50 (ATXN3-HiBiT protein) was 0.01 to 100 nM.
`Cc1c(C[C@H](C)N)oc2c(NCc3ccc(F)s3)cc(Cl)nc12` [Compound 12, 2-[(S)-2-aminopropyl]-5-chloro-7-{[(5-fluoro-2-thienyl)methyl]amino}-3-methyl-1-oxa-4-azaindene] showed an IC50 [1] of 501 to 5000 nM and an IC50 (total ATXN3 protein) of 501 to 5000 nM.
For `CC[C@H](N)Cc1oc2c(NCc3cccs3)cc(Cl)nc2c1C` [Compound 13, 2-[(S)-2-aminobutyl]-5-chloro-3-methyl-7-thenylamino-1-oxa-4-azaindene], the IC50 [1] was 101 to 500 nM, the IC50 (total ATXN3 protein) was 101 to 500 nM and the EC50 (ATXN3-HiBiT protein) was 101 to 500 nM.
Compound `Cc1c(C[C@H](C)N)oc2c(NCc3cccs3)cc(C#N)nc12` [Compound 15, 2-[(2S)-2-aminopropyl]-3-methyl-7-[(thiophen-2-ylmethyl)amino]furo[3,2-b]pyridine-5-carbonitrile] has an IC50 [1] of 501 to 5000 nM and an IC50 (total ATXN3 protein) of 501 to 5000 nM.
Work on `C[C@H](N)Cc1oc2c(NCc3cccs3)cc(Cl)nc2c1C1CC1` [Compound 19, 2-[(2S)-2-aminopropyl]-5-chloro-3-cyclopropyl-N-(thiophen-2-ylmethyl)furo[3,2-b]pyridin-7-amine] yielded an IC50 [1] of 101 to 500 nM and an IC50 (total ATXN3 protein) of 101 to 500 nM.
In the case of `N[C@H](Cc1oc2c(NCc3cccs3)cc(Cl)nc2c1Br)CC(F)(F)F` [Compound 24, 2-[(R)-2-amino-4,4,4-trifluorobutyl]-3-bromo-5-chloro-7-thenylamino-1-oxa-4-azaindene], the IC50 [1] is reported as 101 to 500 nM and the IC50 (total ATXN3 protein) is reported as 101 to 500 nM.
`N[C@H](Cc1oc2c(NCc3cccs3)cc(Cl)nc2c1Cl)CC1CC1` [Compound 28, 2-[(S)-2-amino-3-cyclopropylpropyl]-3,5-dichloro-7-thenylamino-1-oxa-4-azaindene] gave an IC50 [1] of 101 to 500 nM and an IC50 (total ATXN3 protein) of 101 to 500 nM.
With `N[C@H](Cc1oc2c(NCc3ccco3)cc(Cl)nc2c1Cl)CC1CC1` [Compound 29, 2-[(S)-2-amino-3-cyclopropylpropyl]-3,5-dichloro-7-(furfurylamino)-1-oxa-4-azaindene] the IC50 [1] was 101 to 500 nM and the IC50 (total ATXN3 protein) was 101 to 500 nM.
Work on `Cc1c(C[C@@H](N)CC(F)(F)F)oc2c(NCc3cccs3)cc(Cl)nc12` [Compound 30, 2-[(R)-2-amino-4,4,4-trifluorobutyl]-5-chloro-3-methyl-7-thenylamino-1-oxa-4-azaindene] yielded an IC50 [1] of 501 to 5000 nM and an IC50 (total ATXN3 protein) of 501 to 5000 nM.
In the case of `Clc1cc(NCc2cccs2)c2occ(C3CC3)c2n1` [Compound 32, (thenyl)(5-chloro-3-cyclopropyl-1-oxa-4-aza-7-indenyl)amine], the IC50 [1] is reported as 501 to 5000 nM and the IC50 (total ATXN3 protein) is reported as 501 to 5000 nM.
`COC[C@H](N)Cc1oc2c(NCc3ccco3)cc(Cl)nc2c1Br` [Compound 38, 2-[(R)-2-amino-3-methoxypropyl]-3-bromo-5-chloro-7-(furfurylamino)-1-oxa-4-azaindene] gave an IC50 [1] of 101 to 500 nM and an IC50 (total ATXN3 protein) of 0.01 to 100 nM.
For `N[C@@H](CF)Cc1oc2c(NCc3ccco3)cc(Cl)nc2c1Br` [Compound 39, 2-[(R)-2-amino-3-fluoropropyl]-3-bromo-5-chloro-7-(furfurylamino)-1-oxa-4-azaindene], the IC50 [1] was 0.01 to 100 nM and the IC50 (total ATXN3 protein) was 0.01 to 100 nM.
`Cc1c(C[C@@H](N)[C@@H](C)F)oc2c(NCc3cccs3)cc(Cl)nc12` [Compound 42, 2-[(2R,3R)-2-amino-3-fluorobutyl]-5-chloro-3-methyl-7-thenylamino-1-oxa-4-azaindene] gave an IC50 [1] of 501 to 5000 nM and an IC50 (total ATXN3 protein) of 501 to 5000 nM.
`COC[C@H](N)Cc1oc2c(NCc3ccccc3)cc(Cl)nc2c1Br` [Compound 47, 2-[(R)-2-amino-3-methoxypropyl]-7-benzylamino-3-bromo-5-chloro-1-oxa-4-azaindene] showed an IC50 [1] of 101 to 500 nM and an IC50 (total ATXN3 protein) of 101 to 500 nM.
Compound `COC[C@H](N)Cc1oc2c(NCc3nccs3)cc(Cl)nc2c1Br` [Compound 49, 2-[(R)-2-amino-3-methoxypropyl]-3-bromo-5-chloro-7-{[(1,3-thiazol-2-yl)methyl]amino}-1-oxa-4-azaindene] has an IC50 [1] of 101 to 500 nM and an IC50 (total ATXN3 protein) of 101 to 500 nM.
Compound `C[C@H](N)Cc1oc2c(NCc3ccco3)cc(Cl)nc2c1Cl` [Compound 54, 2-[(S)-2-aminopropyl]-3,5-dichloro-7-(furfurylamino)-1-oxa-4-azaindene] has an IC50 [1] of 101 to 500 nM and an IC50 (total ATXN3 protein) of 0.01 to 100 nM.
Work on `N[C@H](Cc1oc2c(NCc3cccs3)cc(Cl)nc2c1Br)CC1CC1` [Compound 55, 2-[(S)-2-amino-3-cyclopropylpropyl]-3-bromo-5-chloro-7-thenylamino-1-oxa-4-azaindene] yielded an IC50 [1] of 0.01 to 100 nM and an IC50 (total ATXN3 protein) of 0.01 to 100 nM.
Compound `N[C@H](Cc1oc2c(NCc3ccco3)cc(Cl)nc2c1Br)CC1CC1` [Compound 56, 2-[(S)-2-amino-3-cyclopropylpropyl]-3-bromo-5-chloro-7-(furfurylamino)-1-oxa-4-azaindene] has an IC50 [1] of 0.01 to 100 nM and an IC50 (total ATXN3 protein) of 0.01 to 100 nM.
Compound `C[C@H](N)Cc1oc2c(NCc3ccc(F)cc3F)cc(Cl)nc2c1Br` [Compound 350, 2-[(S)-2-aminopropyl]-3-bromo-5-chloro-7-{[(2,4-difluorophenyl)methyl]amino}-1-oxa-4-azaindene] has an IC50 [1] of 501 to 5000 nM and an EC50 (ATXN3-HiBiT protein) of 501 to 5000 nM.
Compound `C[C@H](N)Cc1oc2c(NCc3ccc(Cl)s3)cc(Cl)nc2c1Br` [Compound 353, 2-[(S)-2-aminopropyl]-3-bromo-5-chloro-7-{[(5-chloro-2-thienyl)methyl]amino}-1-oxa-4-azaindene] has an IC50 [1] of 501 to 5000 nM and an EC50 (ATXN3-HiBiT protein) of 501 to 5000 nM.
Compound `OCc1oc2c(NCc3cccs3)cc(Cl)nc2c1Br` [Compound 354, (3-bromo-5-chloro-7-thenylamino-1-oxa-4-aza-2-indenyl)methanol] has an IC50 [1] of 5000 to 10000 nM and an EC50 (ATXN3-HiBiT protein) of 5000 to 10000 nM.
